Laboratory results as given in patent US5830902A, “Quinuclidine derivative having tricyclic hetero condensed ring” (Yamanouchi Pharmaceutical Co., Ltd., priority 1995, dated 1998).
Structures can show the parent of a compound that is named as a salt. Where two headings read alike, the source gives them in different places.

Tests used:
[1] = tested on: enzyme located at a downstream stage of the cholesterol biosynthesis system; details: background art; cited from earlier work
[2] = Cholesterol lowering action in hamster; type: in vivo; details: male golden hamsters; 50 mg/kg in 0.5% methyl cellulose, administered by force; 5 days; blood 2 hours after final administration
Method: C. Cholesterol lowering action in hamster
Male golden hamsters (130 to 150 g) which have been treated by reversing night and day since 12 or more days before the commencement of administration were divided into groups 4 days before the administration in such a manner that the cholesterol value became the same among the groups. Each drug was prepared as a 0.5% methyl cellulose solution and administered by force in a dosage of 50 mg/kg. In this case, the liquid volume was 10 ml/kg.
The administration was carried out continuously for 4 days at around A.M. 11:00 under satiated condition and then on the fifth day after 16 hours of fasting. After 2 hours of the final administration, blood samples were collected from the abdominal vena cava under diethyl ether anesthesia and their cholesterol values were measured using an automatic analyzer (Hitachi 736).

human squalene synthase = biological target: T1, human squalene synthase (Homo sapiens, UniProt P37268); assay: Test on human squalene synthase inhibition (HepG2 microsomal fraction); type: biochemical
T1 construct: endogenous in cells; host or cells: HepG2 human hepatoma cells (microsomal fraction)
T1 sequence (P37268 1-417): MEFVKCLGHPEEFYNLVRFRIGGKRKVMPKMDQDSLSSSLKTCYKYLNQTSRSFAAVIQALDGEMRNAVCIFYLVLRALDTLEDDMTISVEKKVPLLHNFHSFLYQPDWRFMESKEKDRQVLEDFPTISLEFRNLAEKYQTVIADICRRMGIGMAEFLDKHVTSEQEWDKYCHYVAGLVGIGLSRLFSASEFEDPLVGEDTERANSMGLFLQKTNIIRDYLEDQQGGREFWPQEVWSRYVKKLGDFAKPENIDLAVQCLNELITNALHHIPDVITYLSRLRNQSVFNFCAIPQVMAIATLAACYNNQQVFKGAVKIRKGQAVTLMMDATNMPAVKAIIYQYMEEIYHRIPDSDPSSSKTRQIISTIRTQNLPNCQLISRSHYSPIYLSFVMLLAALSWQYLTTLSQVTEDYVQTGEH
Method: A. Test on human squalene synthase inhibition
(1) Preparation of squalene synthase from human hepatoma cells
Human hepatoma cells (HepG2 cells) were cultured using DMEM containing 10% FBS until a single layer was formed, and then the medium was replaced by DMEM supplemented with 10% human lipoprotein deficient serum (LPDS) to carry out 24 hours of culturing. The cells were washed twice with PBS, collected using a Rubber Policeman and subjected to centrifugation. The resulting precipitate was homogenized in five volumes of 50 mM Hepes buffer (pH 7.5) containing 5 mM EDTA and centrifuged at 20,000×g for 15 minutes. The supernatant was again subjected to the same centrifugation. The supernatant was subjected to 1 hour of centrifugation at 100,000×g, and the microsomes obtained were suspended in the same buffer and used in the test as a HepG2 squalene synthase fraction.
(2) Measurement of squalene synthase inhibiting activity
A dimethyl sulfoxide solution of each drug to be tested was added to a solution of the squalene synthase fraction prepared above (protein 10 ng, 50 mM Hepes buffer (pH 7.5)), 11 mM NaF, 5.5 mM MgCl2, 3 mM DTT, 1 mM NADPH, 1 mM pyrophosphate and 2.5 μM ^3 H-FPP, and the mixture was adjusted to a total volume of 0.2 ml and shaken at 30° C. for 20 minutes to effect the reaction. The reaction was terminated by adding 100 μl of 20% potassium hydroxide-50% ethanol solution, and the reaction solution was heated at 65° C. for 30 minutes. The un-saponified material was extracted with petroleum ether, and 1/3 volume thereof was subjected to measurement by a liquid scintillation counter. The ^3 H radioactivity of the un-saponified material was regarded as products down stream of squalene in the cholesterol biosynthesis system, and the squalene synthase inhibiting action was calculated by comparing ^3 H radioactivities of the test group and control group.
In addition, concentration of each compound of the present invention to inhibit 50% of squalene synthase (IC50 value) was obtained by calculation.

SMILES	desmosterol accumulation / cataracts [1]	Lowering ratio (cholesterol) [2] [%]	IC50 (human squalene synthase) [nM]	IC50 (human squalene synthase; squalene synthase derived from human hepatoma (HepG2) cells, 2.5 μM 3H-FPP, 30° C., 20 minutes, read-out: IC50 value of squalene synthase inhibiting activity) [nM]
CCN(CC)CCOc1ccc(C(O)(Cc2ccc(Cl)cc2)c2ccc(C)cc2)cc1 (stereo not shown) [triparanol]	accumulates desmosterol which causes the cataracts	–	–	–
C(/COc1ccc2c(c1)[nH]c1ccccc12)=C1/CN2CCC1CC2.Cl [Example 2, (Z)-3-[2-(Carbazol-2-yloxy)ethylidene]quinuclidine hydrochloride]	–	39	59	–
F/C(COc1ccc2c(c1)[nH]c1ccccc12)=C1/CN2CCC1CC2 [Example 1, (E)-3-[2-(Carbazol-2-yloxy)-1-fluoroethylidene]quinuclidine hydrochloride]	–	57	–	79
CN1c2ccccc2Sc2cc(COC3CN4CCC3CC4)ccc21.Cl (stereo not shown) [Example 17, 3-(10-Methylphenothiazin-3-ylmethoxy)quinuclidine hydrochloride]	–	46	85	–
